Results on 21 compounds are retold here after patent publication US10882844B2, “Compounds useful as immunomodulators” (Bristol-Myers Squibb Company, priority 2016, dated 2021).

This experiment concerns the target PD-1/PD-L1 (Homo sapiens (Human), UniProt Q9NZQ7). In words: PD-1/PD-L1 Homogenous Time-Resolved Fluorescence (HTRF) binding assay. The following applies: PD-1-Ig / PD-L1-His HTRF, read-out: Range or IC50. The text has this:
The ability of the compounds of formula (I) to bind to PD-L1 was investigated using a PD-1/PD-L1 Homogenous Time-Resolved Fluorescence (HTRF) binding assay.
Homogenous Time-Resolved Fluorescence (HTRF) binding assay.
The interaction of PD-1 and PD-L1 can be assessed using soluble, purified preparations of the extracellular domains of the two proteins. The PD-1 and PD-L1 protein extracellular domains were expressed as fusion proteins with detection tags, for PD-1, the tag was the Fc portion of Immunoglobulin (PD-1-Ig) and for PD-L1 it was the 6 histidine motif (PD-L1-His). All binding studies were performed in an HTRF assay buffer consisting of dPBS supplemented with 0.1% […] bovine serum albumin and 0.05% (v/v) Tween-20. For the h/PD-L1-His binding assay, inhibitors were pre-incubated with PD-L1-His (10 nM final) for 15 m in 4 μl of assay buffer, followed by addition of PD-1-Ig (20 nM final) in 1 μl of assay buffer and further incubation for 15 m. HTRF detection was achieved using europium crypate-labeled anti-Ig (1 nM final) and allophycocyanin (APC) labeled anti-His (20 nM final). Antibodies were diluted in HTRF detection buffer and 5 μl was dispensed on top of the binding reaction. The reaction mixture was allowed to equilibrate for 30 minutes and the resulting signal (665 nm/620 nm ratio) was obtained using an EnVision fluorometer. Additional binding assays were established between the human proteins PD-1-Ig/PD-L2-His (20 & 5 nM, respectively) and CD8O-His/PD-L1-Ig (100 & 10 nM, respectively).
Recombinant Proteins: Human PD-1 (25-167) with a C-terminal human Fc domain of immunoglobulin G (Ig) epitope tag [hPD-1 (25-167)-3S-IG] and human PD-L1 (18-239) with a C-terminal His epitope tag [hPD-L1(18-239)-TVMV-His] were expressed in HEK293T cells and purified sequentially by ProteinA affinity chromatography and size exclusion chromatography. Human PD-L2-His and CD80-His was obtained through commercial sources.
The table below lists the IC50 values for representative examples of this disclosure measured in the PD-1/PD-L1 Homogenous Time-Resolved Fluorescence (HTRF) binding assay. Ranges are as follows: A=0.18 nM-0.99 nM; B=1.0 nM-5.0 nM; C=5.01 nM-10.1 nM; D=10.2 nM-200 nM; E=201 nM→10 uM
(TR-FRET usually uses a lanthanide donor and a delayed reading to cut background.)

Each structure is given as a SMILES string. Like-named read-outs stand apart in the source and are kept apart here.

Sequence of PD-1/PD-L1 (Q9NZQ7 other isoform, or with tags, fused parts or gaps): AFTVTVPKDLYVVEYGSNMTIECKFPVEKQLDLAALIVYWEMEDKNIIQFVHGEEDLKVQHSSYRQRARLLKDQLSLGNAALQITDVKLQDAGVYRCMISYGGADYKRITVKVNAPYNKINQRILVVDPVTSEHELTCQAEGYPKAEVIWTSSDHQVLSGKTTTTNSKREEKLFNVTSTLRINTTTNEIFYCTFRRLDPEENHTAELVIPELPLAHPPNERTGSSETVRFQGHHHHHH

Broadly, the IC50 is the concentration that gives 50% inhibition. As to `Cc1c(COc2cc(OCc3cncc(C#N)c3)c(CN3CCCC[C@H]3C(=O)O)cc2Cl)cccc1-c1cc(C)c2oc(C3CCN(C)CC3)nc2c1` [Example 1009, (S)-1-(5-chloro-2-((5-cyanopyridin-3-yl)methoxy)-4-((2-methyl-3-(7-methyl-2-(1-methylpiperidin-4-yl)benzo[d]oxazol-5-yl)benzyl)oxy)benzyl)piperidine-2-carboxylic Acid], where the note is “value given as range class”, the IC50 was in the range of 1 to 5 nM.

For the compound `Cc1c(COc2cc(OCc3cncc(C#N)c3)c(CN3CCCC[C@H]3C(=O)O)cc2Cl)cccc1-c1ccc2ncc(N3CCN(C)CC3)nc2c1` [Example 1031, (S)-1-(5-chloro-2-((5-cyanopyridin-3-yl)methoxy)-4-((2-methyl-3-(3-(4-methylpiperazin-1-yl)quinoxalin-6-yl)benzyl)oxy)benzyl)piperidine-2-carboxylic Acid], for the setting “value given as range class”, the IC50 lay within 5.01 to 10.1 nM.

Consider `Cc1c(COc2cc(OCc3cncc(C#N)c3)c(CN3CCCC[C@H]3C(=O)O)cc2Cl)cccc1-c1ccc2oc(C3CC4CCC(C3)O4)nc2c1` (stereo partly drawn) [Example 1018, (2S)-1-(4-((3-(2-(8-oxabicyclo[3.2.1]octan-3-yl)benzo[d]oxazol-5-yl)-2-methylbenzyl)oxy)-5-chloro-2-((5-cyanopyridin-3-yl)methoxy)benzyl)piperidine-2-carboxylic Acid], for which the concentration for half-maximal inhibition (IC50) (value given as range class) was in the range of 1 to 5 nM.

As to `Cc1c(COc2cc(OCc3cncc(C#N)c3)c(CN3CCCC[C@H]3C(=O)O)cc2Cl)cccc1-c1ccc2ncc(C3=CCCNC3)nc2c1` [Example 1027, (S)-1-(5-Chloro-2-((5-cyanopyridin-3-yl)methoxy)-4-((2-methyl-3-(3-(1,2,5,6-tetra-hydropyridin-3-yl)quinoxalin-6-yl)benzyl)oxy)benzyl)piperidine-2-carboxylic Acid], the IC50 (value given as number) worked out at 1.7 nM.

As to `Cc1c(COc2cc(OCc3cncc(C#N)c3)c(CN3CCCC[C@H]3C(=O)O)cc2Cl)cccc1-c1ccc2oc(C3CCCN(C)C3)nc2c1` (stereo partly drawn) [Example 1003, (2S)-1-(5-chloro-2-((5-cyanopyridin-3-yl)methoxy)-4-((2-methyl-3-(2-(1-methylpiperidin-3-yl)benzo[d]oxazol-5-yl)benzyl)oxy)benzyl)piperidine-2-carboxylic Acid], the IC50 (value given as range class) was 1 to 5 nM.

As for `Cc1c(COc2cc(OCc3cncc(C#N)c3)c(CN3CCCC[C@H]3C(=O)O)cc2Cl)cccc1-c1ccc2oc(C3CCN(C)C3)nc2c1` (stereo partly drawn) [Example 1008, (2S)-1-(5-chloro-2-((5-cyanopyridin-3-yl)methoxy)-4-((2-methyl-3-(2-(1-methylpyrrolidin-3-yl)benzo[d]oxazol-5-yl)benzyl)oxy)benzyl)piperidine-2-carboxylic Acid], the IC50 (value given as number) is 0.67 nM.

For `Cc1c(COc2cc(OCc3cncc(C#N)c3)c(CN3CCCC[C@H]3C(=O)O)cc2Cl)cccc1-c1ccc2oc(C3CCNCC3)nc2c1` [Example 1004, (S)-1-(5-chloro-2-((5-cyanopyridin-3-yl)methoxy)-4-((2-methyl-3-(2-(piperidin-4-yl)benzo[d]oxazol-5-yl)benzyl)oxy)benzyl)piperidine-2-carboxylic Acid], under “value given as range class”, the 50% inhibitory concentration (IC50) fell in the range of 1 to 5 nM.

With `Cc1c(COc2cc(OCc3cncc(C#N)c3)c(CN3CCCC[C@H]3C(=O)O)cc2Cl)cccc1-c1ccc2oc(N3C[C@@H]4C[C@H]3CN4C)nc2c1` [Example 2002, (S)-1-(5-chloro-2-((5-cyanopyridin-3-yl)methoxy)-4-((2-methyl-3-(2-((1S,4S)-5-methyl-2,5-diazabicyclo[2.2.1]heptan-2-yl)benzo[d]oxazol-5-yl)benzyl)oxy)benzyl)piperidine-2-carboxylic Acid], the 50% inhibitory concentration (IC50) (value given as range class) was in the range of 5.01 to 10.1 nM.

`Cc1c(COc2cc(OCc3cncc(C#N)c3)c(CN3CCCC[C@H]3C(=O)O)cc2Cl)cccc1-c1ccc2oc(C3CC4CCC(C3)N4C)nc2c1` (stereo partly drawn) [Example 1014, (2S)-1-(5-chloro-2-((5-cyanopyridin-3-yl)methoxy)-4-((2-methyl-3-(2-(8-methyl-8-azabicyclo[3.2.1]octan-3-yl)benzo[d]oxazol-5-yl)benzyl)oxy)benzyl)piperidine-2-carboxylic Acid]: the half-inhibitory concentration (IC50) (value given as range class) lay within 1 to 5 nM.

Turning to `Cc1c(COc2cc(OCc3cncc(C#N)c3)c(CN(C)C(C)(CO)CO)cc2Cl)cccc1-c1ccc2oc(N3CCN(C)CC3)nc2c1` [Example 2015], the IC50 (value given as range class) is 0.18 to 0.99 nM.

As to `Cc1c(COc2cc(OCc3cncc(C#N)c3)c(CN[C@H](C(=O)O)C(C)C)cc2Cl)cccc1-c1ccc2oc(N3CCN(C)CC3)nc2c1` [Example 2013, (S)-2-((5-chloro-2-((5-cyanopyridin-3-yl)methoxy)-4-((2-methyl-3-(2-(4-methylpiperazin-1-yl)benzo[d]oxazol-5-yl)benzyl)oxy)benzyl)amino)-3-methylbutanoic Acid], the IC50 (value given as range class) lay in the range of 1 to 5 nM.

Consider `Cc1c(COc2cc(OCc3cncc(C#N)c3)c(CN3CCCC[C@H]3C(=O)O)cc2Cl)cccc1-c1ccc2oc(C3CCN(CC(=O)O)CC3)nc2c1` [Example 1016, (S)-1-(4-((3-(2-(1-(carboxymethyl)piperidin-4-yl)benzo[d]oxazol-5-yl)-2-methylbenzyl)oxy)-5-chloro-2-((5-cyanopyridin-3-yl)methoxy)benzyl)piperidine-2-carboxylic Acid], for which, for the setting “value given as range class”, the concentration for half-maximal inhibition (IC50) fell in the range of 0.18 to 0.99 nM.

Turning to `Cc1c(COc2cc(OCc3cncc(C#N)c3)c(CN3CCCC[C@H]3C(=O)O)cc2Cl)cccc1-c1ccc2oc(C3CCOCC3)nc2c1` [Example 1017, (S)-1-(5-chloro-2-((5-cyanopyridin-3-yl)methoxy)-4-((2-methyl-3-(2-(tetrahydro-2H-pyran-4-yl)benzo[d]oxazol-5-yl)benzyl)oxy)benzyl)piperidine-2-carboxylic Acid], the IC50 (value given as range class) fell in the range of 0.18 to 0.99 nM.

In the case of `Cc1c(COc2cc(OCc3cncc(C#N)c3)c(CN3CCCC[C@H]3C(=O)O)cc2Cl)cccc1-c1ccc2oc(N3CCN(C)CC3)nc2c1` [Example 2007, (S)-1-(5-chloro-2-((5-cyanopyridin-3-yl)methoxy)-4-((2-methyl-3-(2-(4-methylpiperazin-1-yl)benzo[d]oxazol-5-yl)benzyl)oxy)benzyl)piperidine-2-carboxylic Acid], the half-maximal inhibitory concentration (IC50) (value given as range class) lay in the range of 1 to 5 nM.

Consider `Cc1c(COc2cc(OCc3cncc(C#N)c3)c(CN3CCCC[C@H]3C(=O)O)cc2Cl)cccc1-c1ccc2nc(C3CCN(C)CC3)oc2c1` [Example 1002, (S)-1-(5-chloro-2-((5-cyanopyridin-3-yl)methoxy)-4-((2-methyl-3-(2-(1-methylpiperidin-4-yl)benzo[d]oxazol-6-yl)benzyl)oxy)benzyl)piperidine-2-carboxylic Acid], for which the half-inhibitory concentration (IC50) (value given as range class) was 1 to 5 nM.

As to `Cc1c(COc2cc(OCc3cncc(C#N)c3)c(C=O)cc2Cl)cccc1-c1ccc2oc(C3CCN(C)CC3)nc2c1` [Example 1019, 5-((4-chloro-2-formyl-5-((2-methyl-3-(2-(1-methylpiperidin-4-yl)benzo[d]oxazol-5-yl)benzyl)oxy)phenoxy)methyl)nicotinonitrile], the 50% inhibitory concentration (IC50) (value given as range class) lay within 5.01 to 10.1 nM.

As to `Cc1c(COc2cc(OCc3cncc(C#N)c3)c(CN[C@@](C)(CO)C(=O)O)cc2Cl)cccc1-c1ccc2oc(N3CCN(C)CC3)nc2c1` [Example 2011, (S)-2-((5-chloro-2-((5-cyanopyridin-3-yl)methoxy)-4-((2-methyl-3-(2-(4-methylpiperazin-1-yl)benzo[d]oxazol-5-yl)benzyl)oxy)benzyl)amino)-3-hydroxy-2-methylpropanoic Acid], the IC50 (value given as range class) fell in the range of 1 to 5 nM.

With `Cc1c(COc2cc(OCc3cncc(C#N)c3)c(CNC(C)(CO)CO)cc2Cl)cccc1-c1ccc2oc(N3CCN(C)CC3)nc2c1` [Example 2009], the IC50 (value given as range class) fell in the range of 0.18 to 0.99 nM.

On to `Cc1c(COc2cc(OCc3cncc(C#N)c3)c(CN3CCCC[C@H]3C(=O)O)cc2Cl)cccc1-c1ccc2ncc(C3=CC4CCC(C3)N4C(=O)OC(C)(C)C)nc2c1` (stereo partly drawn) [Example 1028], for which the IC50 (value given as range class) lay in the range of 201 to 10000 nM.

As to `CCN(CC)C1CCC(c2nc3cc(-c4cccc(COc5cc(OCc6cncc(C#N)c6)c(CN6CCCC[C@H]6C(=O)O)cc5Cl)c4C)ccc3o2)CC1` (stereo partly drawn) [Example 1012, (S)-1-(5-chloro-2-((5-cyanopyridin-3-yl)methoxy)-4-((3-(2-(4-(diethylamino)cyclohexyl)benzo[d]oxazol-5-yl)-2-methylbenzyl)oxy)benzyl)piperidine-2-carboxylic Acid], the IC50 (value given as range class) lay in the range of 0.18 to 0.99 nM.

For `Cc1c(COc2cc(OCc3cncc(C#N)c3)c(CN(C)C(CO)CO)cc2Cl)cccc1-c1ccc2oc(N3C[C@@H]4C[C@H]3CN4C)nc2c1` [Example 2001], the half-maximal inhibitory concentration (IC50) (value given as number) was determined as 3.8 nM.
